Source: patent US12173018B2, “Penicillin-binding protein inhibitors” (priority 2018, dated 2024)
pEC50: −log10 of the molar value. In brackets after ≈: the same amount, converted by molar mass. Counter-ions that a name gives are not always drawn. Like-named read-outs stand apart in the source and are kept apart here.

Legend:
E. coli PBP3 = E. coli PBP3 (Escherichia coli (strain K12), UniProt P0AD68); assay: E. coli PBP3 Bocillin-FL fluorescence polarization competition binding assay
Outline: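 This was a fluorescence polarization competition with fluorescent penicillin Bocillin-FL (0.1 μM final), read at 490/520 nm for 60 min immediately after its addition. The buffer was Hepes pH 8.0 with 300 mM NaCl and 5% glycerol, containing 1.5 μM PBP and test inhibitor up to 1000 μM. Potency is expressed as EC50 for reducing probe binding.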

E. coli PBP1b = E. coli PBP1b (Escherichia coli (strain K12), UniProt P02919); assay: Radioligand competition binding assay with 14C-labeled boronic acid probe, PBP1b
Source text: To determine the ability of boronic acid-based test PBP inhibitors to bind Penicillin Binding Proteins (PBPs), a radio-labelled boronic acid PBP inhibitor
[drawing 751] was used in competition binding assays to determine boronic acid PBP inhibitor binding to PBP1a or PBP1b from Escherichia coli. PBP1a and PBP1b were purified as described previously (Bertsche, U.; et al., J. Biol. Chem. 2005, 280 (45), 38096-38101; Born, P.; et al., J. Biol. Chem. 2006. 281 (37), 26985-26993). To establish assay conditions for competition binding, an enzyme titration/saturation binding experiment was performed. Saturation binding was performed in a buffer comprised of 20 mM Tris (pH 7.5), 500 mM NaCl and 0.1% (v/v) TritonX-100, with PBP1a/PBP1b at a final concentration of 0.1 μM and Compound A at final concentrations ranging from 0-100 μM. Mixtures were incubated for 60 minutes, then applied to Zeba Spin Desalting columns or plates (ThermoFisher Scientific) and centrifuged at 1000-1500×g for 2 minutes. The flow through, containing PBP bound with Compound A, was recovered and 100 μL mixed with 5 mL of UltimaGold liquid scintillation cocktail (Perkin Elmer), and the radioactivity counted using a Beckman Coulter LS 6500 Multipurpose scintillation counter. PBP binding of Compound A approached saturation at 20 μM of ^14C-labeled probe. The competition binding assay was validated using the beta-lactam ampicillin, with Compound A at a final concentration of 20 μM, PBP1a/PBP1b at a final concentration of 0.1 μM. PBP1a/PBP1b was incubated with ampicillin in a 96-well microplate for 60 minutes, then Compound A was added and the mixtures incubated for an additional 60 minutes. The mixtures were then applied to Zeba Spin desalting plates and centrifuged at 1000×g for 2 minutes. The flow through was recovered and 100 μl mixed with 5 ml of UltimaGold liquid scintillation cocktail and the radioactivity counted. […] Binding assays with boronic acid PBP inhibitors were performed in an identical fashion. The potency of boronic acid PBP inhibitors was reported as the EC50 value.

[1] = tested on: engineered strain of Escherichia coli harboring CTX-M15; assay: microbe, parasite or virus in culture; assay type: cell-based; settings: Escherichia coli, read-out: Microbiological Activity (MIC in mg/L), E. coli DH5α/pLBII-CTX-M15, engineered strain producing CTX-M15
[2] = fluorescence polarization competition binding with Bocillin-FL, read-out: E. coli K12 PBP3 Potency

Chain of E. coli PBP1b (P02919 whole entry): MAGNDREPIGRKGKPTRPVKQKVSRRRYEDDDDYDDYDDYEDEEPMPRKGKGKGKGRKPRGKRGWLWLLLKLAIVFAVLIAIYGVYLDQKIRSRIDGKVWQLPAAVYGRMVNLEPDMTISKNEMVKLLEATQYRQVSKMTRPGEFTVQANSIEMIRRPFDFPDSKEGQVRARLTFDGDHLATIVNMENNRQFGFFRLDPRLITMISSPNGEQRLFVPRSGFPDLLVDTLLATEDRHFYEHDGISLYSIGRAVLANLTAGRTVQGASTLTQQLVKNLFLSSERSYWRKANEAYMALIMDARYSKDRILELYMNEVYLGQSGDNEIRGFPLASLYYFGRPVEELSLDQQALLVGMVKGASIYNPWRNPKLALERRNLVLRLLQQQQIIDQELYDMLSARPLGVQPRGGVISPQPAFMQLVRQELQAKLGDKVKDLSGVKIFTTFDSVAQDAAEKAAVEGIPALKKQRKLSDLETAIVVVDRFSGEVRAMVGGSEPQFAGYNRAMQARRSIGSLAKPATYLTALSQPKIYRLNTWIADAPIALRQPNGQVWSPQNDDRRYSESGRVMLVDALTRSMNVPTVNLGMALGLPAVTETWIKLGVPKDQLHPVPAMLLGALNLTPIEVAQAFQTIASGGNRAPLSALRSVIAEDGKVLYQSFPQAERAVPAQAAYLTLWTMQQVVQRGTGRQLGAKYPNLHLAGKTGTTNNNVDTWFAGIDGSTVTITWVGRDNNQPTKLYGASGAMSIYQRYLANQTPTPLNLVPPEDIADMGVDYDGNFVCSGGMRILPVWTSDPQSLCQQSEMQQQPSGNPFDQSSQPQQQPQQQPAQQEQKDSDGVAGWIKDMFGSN
Chain of E. coli PBP3 (P0AD68 whole entry): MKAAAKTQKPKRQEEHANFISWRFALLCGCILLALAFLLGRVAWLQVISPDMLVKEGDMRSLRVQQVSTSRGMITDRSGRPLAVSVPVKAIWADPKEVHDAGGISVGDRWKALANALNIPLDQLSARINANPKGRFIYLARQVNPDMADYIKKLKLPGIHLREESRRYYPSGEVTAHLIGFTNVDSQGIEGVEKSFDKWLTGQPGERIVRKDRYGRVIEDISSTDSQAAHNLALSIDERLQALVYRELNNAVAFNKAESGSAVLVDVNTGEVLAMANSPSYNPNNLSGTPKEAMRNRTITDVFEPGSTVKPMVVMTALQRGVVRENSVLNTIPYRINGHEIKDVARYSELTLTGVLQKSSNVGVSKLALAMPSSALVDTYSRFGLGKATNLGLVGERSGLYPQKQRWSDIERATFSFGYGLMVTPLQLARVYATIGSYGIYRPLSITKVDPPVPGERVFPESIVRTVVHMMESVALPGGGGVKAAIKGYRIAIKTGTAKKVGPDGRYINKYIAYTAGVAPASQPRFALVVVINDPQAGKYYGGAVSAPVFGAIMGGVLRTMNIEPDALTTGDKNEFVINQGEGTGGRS

Compound | pEC50 (E. coli PBP3) | pEC50 (E. coli PBP1b) | MIC [1] [mg/L] | pEC50 (E. coli PBP3; [2])
CCN1CCN(C(=O)NC(C(=O)N[C@H]2Cc3cccc(C(=O)O)c3OB2O)c2cnn(C)c2)C(=O)C1=O (stereo partly drawn) [Example 60, (3R)-3-(2-(4-ethyl-2,3-dioxopiperazine-1-carboxamido)-2-(1-methyl-1H-pyrazol-4-yl)acetamido)-2-hydroxy-3,4-dihydro-2H-benzo[e][1,2]oxaborinine-8-carboxylic acid] | 3.30 to 4.52 | 4.00 to 5.00 | 32 to 64 (≈ 62.5 to 125 µM) | –
CCN1CCN(C(=O)N[C@H](C(=O)N[C@H]2Cc3cccc(C(=O)O)c3OB2O)C2(CO)CC2)C(=O)C1=O [Example 63, (R)-3-((S)-2-(4-ethyl-2,3-dioxopiperazine-1-carboxamido)-2-(1-(hydroxymethyl)cyclopropyl)acetamido)-2-hydroxy-3,4-dihydro-2H-benzo[e][1,2]oxaborinine-8-carboxylic acid] | – | > 5.00 | 128 to 256 (≈ 255 to 510 µM) | < 3.30
CCN1CCN(C(=O)NC(C(=O)N[C@H]2Cc3cccc(C(=O)O)c3OB2O)c2ccc(CCN)cc2)C(=O)C1=O (stereo partly drawn) [Example 64, (3R)-3-(2-(4-(2-aminoethyl)phenyl)-2-(4-ethyl-2,3-dioxopiperazine-1-carboxamido)acetamido)-2-hydroxy-3,4-dihydro-2H-benzo[e][1,2]oxaborinine-8-carboxylic acid] | – | 4.00 to 5.00 | 128 to 256 (≈ 232 to 464 µM) | < 3.30
CCN1CCN(C(=O)NC(C(=O)N[C@H]2Cc3cccc(C(=O)O)c3OB2O)c2ccc(O)nc2Cl)C(=O)C1=O (stereo partly drawn) [Example 67, (3R)-3-(2-(2-chloro-6-hydroxypyridin-3-yl)-2-(4-ethyl-2,3-dioxopiperazine-1-carboxamido)acetamido)-2-hydroxy-3,4-dihydro-2H-benzo[e][1,2]oxaborinine-8-carboxylic acid] | 3.30 to 4.52 | 4.00 to 5.00 | 128 to 256 (≈ 229 to 457 µM) | –
CCN1CCN(C(=O)NC(CNS(N)(=O)=O)C(=O)N[C@H]2Cc3cccc(C(=O)O)c3OB2O)C(=O)C1=O (stereo partly drawn) [Example 68, (3R)-3-(2-(4-ethyl-2,3-dioxopiperazine-1-carboxamido)-3-(sulfamoylamino)propanamido)-2-hydroxy-3,4-dihydro-2H-benzo[e][1,2]oxaborinine-8-carboxylic acid] | – | > 5.00 | 32 to 64 (≈ 59.2 to 118 µM) | < 3.30
CCN1CCN(C(=O)NC(CNC(C)=O)C(=O)N[C@H]2Cc3cccc(C(=O)O)c3OB2O)C(=O)C1=O (stereo partly drawn) [Example 69, (3R)-3-(3-acetamido-2-(4-ethyl-2,3-dioxopiperazine-1-carboxamido)propanamido)-2-hydroxy-3,4-dihydro-2H-benzo[e][1,2]oxaborinine-8-carboxylic acid] | – | > 5.00 | 128 to 256 (≈ 254 to 509 µM) | < 3.30
CCN1CCN(C(=O)NC(C(=O)N[C@H]2Cc3cccc(C(=O)O)c3OB2O)C2CCN(CC(=O)O)CC2)C(=O)C1=O (stereo partly drawn) [Example 72, (3R)-3-(2-(1-(carboxymethyl)piperidin-4-yl)-2-(4-ethyl-2,3-dioxopiperazine-1-carboxamido)acetamido)-2-hydroxy-3,4-dihydro-2H-benzo[e][1,2]oxaborinine-8-carboxylic acid, trifluoroacetic acid salt] | 3.30 to 4.52 | > 5.00 | 128 to 256 | –
CCN1CCN(C(=O)N[C@H](CNCC(=O)O)C(=O)N[C@H]2Cc3cccc(C(=O)O)c3OB2O)C(=O)C1=O [Example 73, (R)-3-((R)-3-((carboxymethyl)amino)-2-(4-ethyl-2,3-dioxopiperazine-1-carbox-amido)propanamido)-2-hydroxy-3,4-dihydro-2H-benzo[e][1,2]oxaborinine-8-carboxylic acid, trifluoroacetic acid salt] | – | < 4.00 | 128 to 256 | < 3.30
CCN1CCN(C(=O)NC(C(=O)N[C@H]2Cc3cccc(C(=O)O)c3OB2O)c2ccc(OCCO)cc2)C(=O)C1=O (stereo partly drawn) [Example 74, (3R)-3-(2-(4-ethyl-2,3-dioxopiperazine-1-carboxamido)-2-(4-(2-hydroxyethoxy)phenyl)acetamido)-2-hydroxy-3,4-dihydro-2H-benzo[e][1,2]oxaborinine-8-carboxylic acid] | 3.30 to 4.52 | < 4.00 | 128 to 256 (≈ 225 to 450 µM) | –
CCN1CCN(C(=O)NC(C(=O)N[C@H]2Cc3cccc(C(=O)O)c3OB2O)C2CCN(S(N)(=O)=O)CC2)C(=O)C1=O (stereo partly drawn) [Example 77, (3R)-3-(2-(4-ethyl-2,3-dioxopiperazine-1-carboxamido)-2-(1-sulfamoylpiperidin-4-yl)acetamido)-2-hydroxy-3,4-dihydro-2H-benzo[e][1,2]oxaborinine-8-carboxylic acid] | 3.30 to 4.52 | > 5.00 | 128 to 256 (≈ 215 to 431 µM) | –
CCN1CCN(C(=O)N[C@@H](CNS(C)(=O)=O)C(=O)N[C@H]2Cc3cccc(C(=O)O)c3OB2O)C(=O)C1=O [Example 84, (R)-3-((S)-2-(4-ethyl-2,3-dioxopiperazine-1-carboxamido)-3-(methylsulfonamido)propanamido)-2-hydroxy-3,4-dihydro-2H-benzo[e][1,2]oxaborinine-8-carboxylic acid] | 3.30 to 4.52 | > 5.00 | 128 to 256 (≈ 237 to 475 µM) | –
CCN1CCN(C(=O)NC(C(=O)N[C@H]2Cc3cccc(C(=O)O)c3OB2O)c2ccc(O)cc2Cl)C(=O)C1=O (stereo partly drawn) [Example 88, (3R)-3-(2-(2-chloro-4-hydroxyphenyl)-2-(4-ethyl-2,3-dioxopiperazine-1-carboxamido)acetamido)-2-hydroxy-3,4-dihydro-2H-benzo[e][1,2]oxaborinine-8-carboxylic acid] | – | > 5.00 | 128 to 256 (≈ 229 to 458 µM) | > 4.52
CCN1CCN(C(=O)N[C@@H](C(=O)N[C@H]2Cc3cccc(C(=O)O)c3OB2O)C2CCN(C(=N)N)CC2)C(=O)C1=O [Example 91, (R)-3-((R)-2-(1-carbamimidoylpiperidin-4-yl)-2-(4-ethyl-2,3-dioxopiperazine-1-carboxamido)acetamido)-2-hydroxy-3,4-dihydro-2H-benzo[e][1,2]oxaborinine-8-carboxylic acid] | < 3.30 | > 5.00 | 128 to 256 (≈ 230 to 459 µM) | –
CCN1CCN(C(=O)N[C@H](C(=O)N[C@H]2Cc3cccc(C(=O)O)c3OB2O)C2CCN(C(=N)N)CC2)C(=O)C1=O [Example 92, (R)-3-((S)-2-(1-carbamimidoylpiperidin-4-yl)-2-(4-ethyl-2,3-dioxopiperazine-1-carboxamido)acetamido)-2-hydroxy-3,4-dihydro-2H-benzo[e][1,2]oxaborinine-8-carboxylic acid] | < 3.30 | > 5.00 | 128 to 256 (≈ 230 to 459 µM) | –
CCN1CCN(C(=O)NC(C(=O)N[C@H]2Cc3cccc(C(=O)[O-])c3OB2O)c2ccc[n+](C)c2)C(=O)C1=O (stereo partly drawn) [Example 106, (3R)-3-(2-(4-ethyl-2,3-dioxopiperazine-1-carboxamido)-2-(1-methylpyridin-1-ium-3-yl)acetamido)-2-hydroxy-3,4-dihydro-2H-benzo[e][1,2]oxaborinine-8-carboxylate] | – | > 5.00 | 32 to 64 (≈ 61.1 to 122 µM) | < 3.30
CCN1CCN(C(=O)NC(C(=O)N[C@H]2Cc3cccc(C(=O)O)c3OB2O)C2CCCC2)C(=O)C1=O (stereo partly drawn) [Example 116, (3R)-3-(2-cyclopentyl-2-(4-ethyl-2,3-dioxopiperazine-1-carboxamido)acetamido)-2-hydroxy-3,4-dihydro-2H-benzo[e][1,2]oxaborinine-8-carboxylic acid] | – | 4.00 to 5.00 | 128 to 256 (≈ 256 to 512 µM) | > 4.52
